From patent US6608106B2 (Sloan-Kettering Institute for Cancer Research, priority 1997, dated 2003)
Like-named read-outs stand apart in the source and are kept apart here.

How the values were obtained:
HL60 cells = settings: read-out: apparent Km for transport; cited from earlier work
[1] = rat
GLUT1 [2] = molecular target: T1, GLUT1 (Homo sapiens, UniProt P11166); settings: in vitro data; cited from earlier work
T1 sequence (P11166 1-492): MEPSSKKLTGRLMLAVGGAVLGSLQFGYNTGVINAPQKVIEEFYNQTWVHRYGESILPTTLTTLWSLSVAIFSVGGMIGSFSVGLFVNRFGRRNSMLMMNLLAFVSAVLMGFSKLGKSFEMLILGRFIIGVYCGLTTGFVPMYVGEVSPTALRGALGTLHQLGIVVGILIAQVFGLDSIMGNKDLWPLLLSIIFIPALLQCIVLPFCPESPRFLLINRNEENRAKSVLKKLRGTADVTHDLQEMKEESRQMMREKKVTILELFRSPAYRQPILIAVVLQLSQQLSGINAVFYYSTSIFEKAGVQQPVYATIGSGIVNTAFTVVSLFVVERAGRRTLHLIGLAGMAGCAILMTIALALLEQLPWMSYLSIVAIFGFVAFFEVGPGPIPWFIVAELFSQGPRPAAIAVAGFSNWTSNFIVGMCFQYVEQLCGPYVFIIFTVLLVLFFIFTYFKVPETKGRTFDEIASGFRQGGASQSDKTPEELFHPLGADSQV

GLUT1 [3] = molecular target: T2, GLUT1 (Mus musculus, UniProt P17809); settings: dose-dependent, 30-second time course, mice
T2 sequence (P17809 1-492): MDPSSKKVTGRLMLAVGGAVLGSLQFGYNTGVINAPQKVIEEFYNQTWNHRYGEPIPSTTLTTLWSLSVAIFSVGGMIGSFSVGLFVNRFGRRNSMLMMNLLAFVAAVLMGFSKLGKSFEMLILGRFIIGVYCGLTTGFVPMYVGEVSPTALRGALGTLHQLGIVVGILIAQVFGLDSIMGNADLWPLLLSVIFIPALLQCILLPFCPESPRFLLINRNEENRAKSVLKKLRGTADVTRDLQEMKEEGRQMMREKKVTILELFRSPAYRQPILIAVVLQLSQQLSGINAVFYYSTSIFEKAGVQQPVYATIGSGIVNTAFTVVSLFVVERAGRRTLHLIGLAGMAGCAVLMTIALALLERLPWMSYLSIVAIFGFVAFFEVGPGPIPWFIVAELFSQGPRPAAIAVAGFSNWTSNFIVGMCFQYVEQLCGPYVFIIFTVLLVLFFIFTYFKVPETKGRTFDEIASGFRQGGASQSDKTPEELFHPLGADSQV

[4] = in vivo
[5] = 60 mg daily, human volunteers; cited from earlier work
[6] = Tracer studies of brain accumulation in focal cerebral ischemia; type: in vivo, C57/6J BL mice; settings: ischemic animals, 10 minutes or two hours of focal ischemia
Protocol: (§1) Dithiothreitol (0.1 mmol/L) was then added separately to both DHA and ascorbate prior to use as a reducing agent. For experiments examining the effect of focal cerebal ischemia on the DHA's ability to: (1) cross the blood-brain barrier and, (2) protect cerebral tissue, we employed an intraluminal murine model of reversible (45 minutes) or permanent (24 h) right middle cerebral artery occlusion. (12) Anesthetized normothermic C57/6J BL mice were treated prior to ischemia via penile injection with either high dose DHA (250 mg/kg), low dose DHA (40 mg/kg), ascorbate (250 mg/kg), or sucrose (a non-metabolized, non-transportable marker of plasma volume). All animals underwent transcranial laser doppler measurement of cortical cerebral blood flow perioperatively. […] (11) In contrast, the experimental cohorts were followed for 24 hours and underwent pre-sacrifice neurological examination, as previously described. 13 Infarct volumes were calculated by digital analysis of serial, 2,3,5-triphenyltetrazolium-stained, sections, with volumes expressed as percentage of the ipsilateral hemisphere.^12 There were 67 animals in the reperfusion cohort (including vehicle, 40 mg/kg DHA, 250 mg/kg DHA, and 250 mg/kg ascorbate cohorts) and 54 animals in the nonreperfused cohort (including vehicle, 250 mg/kg DHA, and 250 mg/kg ascorbate cohorts). Comparisons were made between groups with a two-tailed Student t-test for unpaired variable. All studies were performed in accordance with an institutionally approved animal protocol.

[7] = tested on: murine stroke (right middle cerebral artery occlusion); experiment: Reperfused stroke: reversible (45 minutes) right middle cerebral artery occlusion; type: in vivo, C57/6J BL mice; settings: for cerebral infarct volume (percentage of the ipsilateral hemisphere): 24 hours
Protocol: as §1

[8] = tested on: murine stroke (right middle cerebral artery occlusion); experiment: Non-reperfused stroke: permanent (24 h) right middle cerebral artery occlusion; type: in vivo, C57/6J BL mice; settings: 250 mg/kg
Protocol: as §1
Since clinical therapeutic antioxidant strategies might be employed prior to hospitalization and reperfusion, we examined the effect of high-dose DHA on non-reperfused stroke as well. […] This improved perfusion was associated with similar reductions in infarct volume (51±6% vehicle, 46±6% AA, and 26±5% high-DHA, p<0.01 vs. vehicle), and sacrifice neurological deficit scores (3.0±0.3% vehicle, 3.2±0.4% AA, and 1.9±0.2% high-DHA; p<0.005 for DHA vs. either control). As in the setting of reperfusion, DHA reduced mortality by nearly 50% (50% vehicle, 64% AA, and 30% high-DHA.

[9] = mouse, in vivo; for serum radioactivity concentration: 15 seconds
[10] = Carotid artery infusion of dehydroascorbic acid: loading of vitamin C into the brain; type: in vivo; settings: 24 mg into carotid artery over forty minutes, rat
Protocol: An experiment was done in which the carotid artery of a subject rat was cannulated with a catheter and 24 mg of dehydroascorbic acid was injected into the artery. The injected dehydroascorbic acid was spiked with a tracer amount of radioactive (^14C-labeled) dehydroascorbic acid. The dehydroascorbic acid was infused over forty minutes and the brain was harvested. The amount of radioactive vitamin C was quantitated in the brain and total amount of injected vitamin C that accumulated in the brain was thus extrapolated. […] It is of note that the total vitamin C concentration in the normal adult rat brain is approximately 150 μg. A log-fold greater Vitamin C than baseline normal concentration of Vitamin C was thus achieved.

[11] = previous studies (11); cited from earlier work
[12] = cited from earlier work
[13] = low dose 40 mg/kg pre-treatment

For O=CC[C@@H](O)[C@H](O)[C@H](O)CO [D-deoxyglucose, 2-Deoxy-D-glucose, reference compound], the Km (HL60 cells) is given as 2500 µM, the “calculated BBB permeability-surface area product (PS)” value [1] is given as 44±3.2 μl/min/gm brain tissue and the “concentration necessary to block the transport of dehydroascorbic acid through GLUT1” value (GLUT1 [2]) is given as “greater than 50 mM”.

With O=C[C@@H](O)[C@H](O)[C@@H](O)[C@@H](O)CO [L-glucose] the “inhibition of uptake of dehydroascorbic acid in the brain” value (GLUT1 [3]) was “no effect”.

For O=C1O[C@H]([C@@H](O)CO)C(O)=C1O [ascorbic acid, L-[1-^14C]-ascorbic acid, reference compound], the “radioactivity found in the brain, percent of injected dose (ID) per gram of brain tissue” value [4] is listed as “only trace radioactivity”, the steady-state plasma concentration [5] is listed as “approximately 24 μM” and the “accumulation, percent of injected dose (TD) per gram of brain tissue” value [6] is listed as “only trace levels”. It also gave a neurological deficit score ([7]; 250 mg/kg pre-treatment) of 2.7±0.7, an overall mortality ([7]; 250 mg/kg pre-treatment) of 50% and a post-ischemic cerebral perfusion ([7]; 250 mg/kg pre-treatment) of 13±1%. For the same molecule, the “cerebral infarct volume (percentage of the ipsilateral hemisphere)” value ([7]; 250 mg/kg pre-treatment) was 58±4%, the infarct volume [8] was 46±6% and the mortality [8] was 64%. The “pre-sacrifice regional cerebral cortical perfusion” value [8] was 15±3%, the maximum brain accumulation ([9]; Balb/c, iv) was 0.4 % ID/gram brain tissue and the serum radioactivity concentration ([9]; Balb/c, iv) was 27 % ID/gram serum. The brain radioactivity ([9]; Balb/c, iv, 2 hours) was 1.1 % ID/gram brain tissue and the “transport into the brain” value [9] was “no measurable transport”.

In the case of O=C1O[C@H]([C@@H](O)CO)C(=O)C1=O [dehydroascorbic acid], the “amount of vitamin C accumulated in the brain” value [10] is given as 2.6 mg, the “vitamin C accumulated in the brain as share of injected dose” value [10] is given as “approximately 11%” and the “form of vitamin C accumulating in the brains of DHA-injected animals that is ascorbic acid” value [11] is given as > 85%. For the same molecule, the Km (HL60 cells) was 850 µM, the “calculated BBB permeability-surface area product (PS)” value [1] was 136±12 μl/min/gm brain tissue and the “radioactivity found in the brain, percent of injected dose (ID) per gram of brain tissue” value ([4]; Balb/c (mouse), Fischer F344 (rat), mouse and rat, 3 min) was “Approximately 4%”. The “accumulation, percent of injected dose (TD) per gram of brain tissue” value [6] was ~4%, the stability ([12]; aqueous solution) was “hydrolyses easily” and the stability ([12]; low pH conditions) was “stable”. For the same molecule, the neurological deficit score ([7]; 250 mg/kg pre-treatment) was 1.9±0.2, the overall mortality ([7]; 250 mg/kg pre-treatment) was 27% and the post-ischemic cerebral perfusion ([7]; 250 mg/kg pre-treatment) was 40±4%. The “cerebral infarct volume (percentage of the ipsilateral hemisphere)” value ([7]; 250 mg/kg pre-treatment) was 12±4%, the neurological deficit score [7, 13] was 1.6±0.2 and the overall mortality [7, 13] was 24%. For the same molecule, the post-ischemic cerebral perfusion [7, 13] was 28±2%, the “cerebral infarct volume (percentage of the ipsilateral hemisphere)” value [7, 13] was 22±4% and the infarct volume [8] was 26±5%. For the same molecule, the mortality [8] was 30%, the “pre-sacrifice regional cerebral cortical perfusion” value [8] was 30±3% and the reduction of mortality ([8]; vs. controls) was ~50%. For the same molecule, the “brain radioactivity, maximum” value ([9]; Balb/c, iv) was 4.3 % of ID/gram brain tissue, the serum radioactivity concentration ([9]; Balb/c, iv) was 8 % ID/gram serum and the brain radioactivity ([9]; Balb/c, iv, 25 min) was 3.3%.

With CC(C)C[C@H](N)C(=O)O [leucine] the “inhibition of uptake of dehydroascorbic acid in the brain” value (GLUT1 [3]) was “no effect”.

With OC[C@H]1O[C@@](CO)(O[C@H]2O[C@H](CO)[C@@H](O)[C@H](O)[C@H]2O)[C@@H](O)[C@@H]1O [sucrose, [fructose-1-^3H]-sucrose] the “radioactivity found in the brain, percent of injected dose (ID) per gram of brain tissue” value [4] was “only trace radioactivity”, the “accumulation, percent of injected dose (TD) per gram of brain tissue” value [6] was “only trace levels” and the maximum brain accumulation ([9]; Balb/c, iv) was 0.4 % ID/gram brain tissue. For the same molecule, the brain radioactivity ([9]; Balb/c, iv, 15 min) was < 0.1%.
